≈ marks a conversion by molar mass, not a printed value. Calls of active or inactive are those of the source. No cut-off for these calls is given here.
What was measured:
[1] = system: Candida albicans; experiment: Antifungal activity against Candida albicans by agar well diffusion method; type: functional
[2] = system: Salmonella typhimurium; experiment: Antibacterial activity against Salmonella enterica subsp. enterica serovar Typhimurium by agar well diffusion method; type: functional
[3] = system: THP-1; experiment: Anti-inflammatory activity in Homo sapiens (human) THP1 cells assessed as inhibition of LPS-induced TNF-alpha production preincubated at 10 uM for 30 min before LPS treatment measured after 24 hr by ELISA; type: functional
[4] = system: THP-1; experiment: Anti-inflammatory activity in Homo sapiens (human) THP1 cells assessed as inhibition of LPS-induced IL-6 production preincubated at 10 uM for 30 min before LPS treatment measured after 24 hr by ELISA; type: functional
[5] = system: Aspergillus flavus; experiment: Antifungal activity against Aspergillus flavus by agar well diffusion method; type: functional
[6] = system: Bacillus subtilis; experiment: Antibacterial activity against Bacillus subtilis by agar well diffusion method; type: functional
[7] = system: Staphylococcus aureus; experiment: Antibacterial activity against Staphylococcus aureus by agar well diffusion method; type: functional
[8] = system: Escherichia coli; experiment: Antibacterial activity against Escherichia coli by agar well diffusion method; type: functional
[9] = system: Fusarium solani; experiment: Antifungal activity against Fusarium solani by agar well diffusion method; type: functional
[10] = system: Aspergillus niger; experiment: Antifungal activity against Aspergillus niger by agar well diffusion method; type: functional
[11] = system: Aspergillus flavus; experiment: Antifungal activity against Aspergillus flavus up to 200 ug/ml by agar well diffusion method; type: functional, organism-based
[12] = system: Bacillus subtilis; experiment: Antibacterial activity against Bacillus subtilis up to 200 ug/ml by agar well diffusion method; type: functional, organism-based
[13] = system: Aspergillus niger; experiment: Antifungal activity against Aspergillus niger up to 200 ug/ml by agar well diffusion method; type: functional, organism-based
[14] = system: Salmonella typhimurium; experiment: Antibacterial activity against Salmonella enterica subsp. enterica serovar Typhimurium up to 200 ug/ml by agar well diffusion method; type: functional, organism-based
[15] = system: Escherichia coli; experiment: Antibacterial activity against Escherichia coli up to 200 ug/ml by agar well diffusion method; type: functional, organism-based
[16] = system: Candida albicans; experiment: Antifungal activity against Candida albicans up to 200 ug/ml by agar well diffusion method; type: functional, organism-based
[17] = system: Staphylococcus aureus; experiment: Antibacterial activity against Staphylococcus aureus up to 200 ug/ml by agar well diffusion method; type: functional, organism-based
[18] = system: Fusarium solani; experiment: Antifungal activity against Fusarium solani up to 200 ug/ml by agar well diffusion method; type: functional, organism-based

| SMILES | MIC [1] | MIC [2] | inhibition at 10 µM [3] | inhibition at 10 µM [4] | MIC [5] | MIC [6] | MIC [7] | MIC [8] | MIC [9] | MIC [10] | Activity [11] | Activity [12] | Activity [13] | Activity [14] | Activity [15] | Activity [16] | Activity [17] | Activity [18] |
| --- | --- | --- | --- | --- | --- | --- | --- | --- | --- | --- | --- | --- | --- | --- | --- | --- | --- | --- |
| CCOC(=O)C1=C(C)NC(=S)NC1c1ccc(NC(=S)Nc2c(C)cccc2Cl)cc1 (configuration not stated) | 65 µg/mL (≈ 137 µM) | 65 µg/mL (≈ 137 µM) | 32% | 55% | 60 µg/mL (≈ 126 µM) | 80 µg/mL (≈ 168 µM) | 40 µg/mL (≈ 84.2 µM) | 65 µg/mL (≈ 137 µM) | 60 µg/mL (≈ 126 µM) | 90 µg/mL (≈ 189 µM) | – | – | – | – | – | – | – | – |
| CCOC(=O)C1=C(C)NC(=S)NC1c1ccc(NC(=S)Nc2cccc(C(F)(F)F)c2)cc1 (configuration not stated) | 15 µg/mL (≈ 30.3 µM) | 15 µg/mL (≈ 30.3 µM) | 0% | 16% | 15 µg/mL (≈ 30.3 µM) | 35 µg/mL (≈ 70.8 µM) | 20 µg/mL (≈ 40.4 µM) | 20 µg/mL (≈ 40.4 µM) | 15 µg/mL (≈ 30.3 µM) | 25 µg/mL (≈ 50.5 µM) | – | – | – | – | – | – | – | – |
| CCOC(=O)C1=C(C)NC(=S)NC1c1ccc(NC(=S)Nc2ccc(F)c(Cl)c2)cc1 (configuration not stated) | – | – | 0% | 58% | – | – | 80 µg/mL (≈ 167 µM) | – | 95 µg/mL (≈ 198 µM) | – | inactive | inactive | inactive | inactive | inactive | inactive | – | – |
| CCOC(=O)C1=C(C)NC(=S)NC1c1ccc(NC(=S)Nc2c(F)cccc2C(F)(F)F)cc1 (configuration not stated) | 55 µg/mL (≈ 107 µM) | 45 µg/mL (≈ 87.8 µM) | 0% | 30% | 80 µg/mL (≈ 156 µM) | 55 µg/mL (≈ 107 µM) | 35 µg/mL (≈ 68.3 µM) | 40 µg/mL (≈ 78 µM) | 45 µg/mL (≈ 87.8 µM) | 30 µg/mL (≈ 58.5 µM) | – | – | – | – | – | – | – | – |
| CCCCc1ccc(NC(=S)Nc2ccc(C3NC(=S)NC(C)=C3C(=O)OCC)cc2)cc1 (configuration not stated) | – | – | 0% | 8% | – | – | – | – | – | – | inactive | inactive | inactive | inactive | inactive | inactive | inactive | inactive |
| CCOC(=O)C1=C(C)NC(=S)NC1c1ccc(NC(=S)Nc2ccccc2Cl)cc1 (configuration not stated) | 10 µg/mL (≈ 21.7 µM) | 20 µg/mL (≈ 43.4 µM) | 0% | 36% | 15 µg/mL (≈ 32.5 µM) | 35 µg/mL (≈ 75.9 µM) | 20 µg/mL (≈ 43.4 µM) | 10 µg/mL (≈ 21.7 µM) | 10 µg/mL (≈ 21.7 µM) | 10 µg/mL (≈ 21.7 µM) | – | – | – | – | – | – | – | – |
| CCOC(=O)C1=C(C)NC(=S)NC1c1ccc(NC(=S)Nc2c(Cl)cccc2C(F)(F)F)cc1 (configuration not stated) | 85 µg/mL (≈ 161 µM) | 90 µg/mL (≈ 170 µM) | 46% | 62% | 90 µg/mL (≈ 170 µM) | – | 65 µg/mL (≈ 123 µM) | 90 µg/mL (≈ 170 µM) | – | 90 µg/mL (≈ 170 µM) | – | inactive | – | – | – | – | – | inactive |
| CCOC(=O)C1=C(C)NC(=S)NC1c1ccc([N+](=O)[O-])cc1 (configuration not stated) | 30 µg/mL (≈ 93.4 µM) | 30 µg/mL (≈ 93.4 µM) | 0% | 3% | 65 µg/mL (≈ 202 µM) | 55 µg/mL (≈ 171 µM) | 40 µg/mL (≈ 124 µM) | 45 µg/mL (≈ 140 µM) | 75 µg/mL (≈ 233 µM) | 65 µg/mL (≈ 202 µM) | – | – | – | – | – | – | – | – |
| CCOC(=O)C1=C(C)NC(=S)NC1c1ccc(NC(=S)Nc2ccc(C(C)C)cc2)cc1 (configuration not stated) | 80 µg/mL (≈ 171 µM) | 90 µg/mL (≈ 192 µM) | 61% | 90% | 95 µg/mL (≈ 203 µM) | 55 µg/mL (≈ 117 µM) | 70 µg/mL (≈ 149 µM) | 90 µg/mL (≈ 192 µM) | 70 µg/mL (≈ 149 µM) | 80 µg/mL (≈ 171 µM) | – | – | – | – | – | – | – | – |
| O=C(O)c1cn(C2CC2)c2cc(N3CCNCC3)c(F)cc2c1=O [CIPROFLOXACIN] | – | 25 µg/mL (≈ 75.4 µM) | – | – | – | 25 µg/mL (≈ 75.4 µM) | – | 15 µg/mL (≈ 45.3 µM) | – | – | – | – | – | – | – | – | – | – |
| Clc1ccc(COC(Cn2ccnc2)c2ccc(Cl)cc2Cl)c(Cl)c1 (configuration not stated) [MICONAZOLE] | 25 µg/mL (≈ 60.1 µM) | – | – | – | 20 µg/mL (≈ 48.1 µM) | – | – | – | 15 µg/mL (≈ 36 µM) | 20 µg/mL (≈ 48.1 µM) | – | – | – | – | – | – | – | – |
| CCOC(=O)C1=C(C)NC(=S)NC1c1ccc(N)cc1 (configuration not stated) | 55 µg/mL (≈ 189 µM) | 45 µg/mL (≈ 154 µM) | 0% | 3% | 80 µg/mL (≈ 275 µM) | 85 µg/mL (≈ 292 µM) | 60 µg/mL (≈ 206 µM) | 40 µg/mL (≈ 137 µM) | 35 µg/mL (≈ 120 µM) | 55 µg/mL (≈ 189 µM) | – | – | – | – | – | – | – | – |
| CCOC(=O)C1=C(C)NC(=S)NC1c1ccc(NC(=S)Nc2ccccc2C(F)(F)F)cc1 (configuration not stated) | 20 µg/mL (≈ 40.4 µM) | 40 µg/mL (≈ 80.9 µM) | 8% | 18% | 20 µg/mL (≈ 40.4 µM) | 10 µg/mL (≈ 20.2 µM) | 10 µg/mL (≈ 20.2 µM) | 15 µg/mL (≈ 30.3 µM) | 20 µg/mL (≈ 40.4 µM) | 50 µg/mL (≈ 101 µM) | – | – | – | – | – | – | – | – |
